Test results: patent US10328092B2, “Methods and compositions for treatment of drug addiction” (The Royal Institution for the Advancement of Learning / …, priority 2015, dated 2019)
Where a name gives a salt, the structure may show the parent alone.

Tests used:
D1-MSNs in the NAc core [1] = assay: AMPA/NMDA ratio on D1-MSNs after in vivo treatment; parameters: species or system mouse; conditions: L741,626 i.p. 3 mg/kg co-administered with daily cocaine over 5 days
Experimental: (§1) Repeated non-contingent administration of cocaine results in lower AMPA/NMDA ratios of excitatory inputs onto the NAc specifically on the D1-MSN subtype (Kim et al., 2011; Pascoli et al., 2012). To test whether the decrease in AMPA/NMDA ratios after repeated drug administration is due to the increase in TNFα expression, the AMPA/NMDA ratio was evaluated on D1 and D2 MSNs in the NAc core following cocaine or saline administration in WT and TNFα^−/− mice. […] This is consistent with the exocytosis of AMPARs observed with direct stimulation of D1Rs on MSNs (Mangiavacchi and Wolf, 2004). […] To test the hypothesis that potentiated D1-MSNs are more sensitive to TNFα, TNFα mice were treated with a single injection of cocaine and the effect of a low level of TNFα (10 ng/ml) on AMPA/NMDA ratios was evaluated. […] This treatment had no effect on D2-MSNs (FIG. 9B). To test whether cocaine-induced TNFα signaling would occlude further TNFα synaptic depression, wildtype animals were treated with cocaine for 5 days, and then treated striatel slices ex-vivo with TNFα (100 ng/ml). The AMPA/NMDA ratio on D1-MSNs (already reduced compared to saline treated animals; FIG. 5E) was not further reduced by treatment with TNFα (FIG. 5G).
Because depotentiation of MSNs reduced cocaine-induced behavioural sensitization (Pascoli et al., 2012), it was tested whether re-activation of microglia would depress NAc synapses and suppress sensitization. To do this, monophosphoryl lipid A (MPLA), a detoxified variant of LPS, was used (Casella and Mitchell, 2008). MPLA acts as a weak TLR4 agonist that is at least 100-fold less pyrogenic than LPS (Cluff, 2010) and is used in humans as an adjuvant for several vaccine formulations. […] It was verified that MPLA activates microglia in the striatum, by injecting 10 μg MPLA IP after 10 days withdrawal from cocaine. […] This is consistent with previous observations that MPLA acts as a microglia modulator (Michaud et al., 2013). […] It was next tested if MPLA treatment would depress synaptic strength in the NAc core. After 10 days of withdrawal, animals were injected with MPLA and evaluated 24 hours later for AMPA/NMDA ratios on D1-MSNs.
240 μm thick coronal slices containing the nucleus accumbens were prepared from brains of 8-9 week-old mice (with fluorescent D1-MSNs). After a 1 h recovery period, slices were placed in a submersion-type recording chamber and perfused (1.5-2 ml/min) at 30° C. with a bicarbonate-buffered artificial CSF saturated with 95% O2/5% CO2 and containing (in mM): 119 NaCl, 2.5 KCl, 1 NaH2PO4, 1.3 MgCl2, 2.5 CaCl2, 26.2 NaHCO3, 11 glucose, and 0.05 picrotoxin. Whole-cell voltage-clamp recordings from medium spiny neurons in the nucleus accumbens core were obtained under visual control using infrared-differential interference contrast microscopy. Whole-cell electrodes (2-4 MΩ) were filled with internal solution containing the following (in mM): 120 CsMeSO3, 15 CsCl, 8 NaCl, 0.2 EGTA, 10 HEPES, 2 Mg-ATP, 0.3 Na-GTP, 10 tetraethylammonium, and 5 QX-314 [5-N-(2,6-dimethylphenylcarbamoylmethyl)triethylammonium bromide] (308-310 mOsm). pH was adjusted to 7.3 with CsOH. Cells with series resistance above 25 MΩ or a 20% change over time were excluded. Synaptic currents were evoked using stainless-steel bipolar stimulating electrodes placed 100-150 μm rostral to the recorded neurons. EPSCs were acquired with an Axopatch 200B (Molecular Devices), filtered at 2 kHz, and digitized at 10 kHz. Acquisition and analysis was performed using pCLAMP 10.2 (Molecular Devices). To calculate AMPA/NMDA ratios, evoked synaptic responses were collected at −70 mV to measure AMPAR-mediated EPSCs and at +40 mV to measure NMDAR-mediated EPSCs. Typically, 20 responses were averaged to generate an average response. The peak AMPA response was used to calculate the AMPAR component and the amplitude at 40 ms post the AMPAR peak response was used to calculate the slower NMDA component at +40 mV to calculate the AMPA/NMDA ratio.

TNFα = TNFα mRNA / protein in ventral striatum (NAc) after in vivo treatment; parameters: species or system mouse; conditions: L741,626 i.p. 3 mg/kg 15 min before daily cocaine, 5 days; adult mice
Experimental: To determine the effect of in vivo cocaine exposure on TNFα levels in the ventral striatum, TNFα mRNA and protein levels were measured in mice given intraperitoneal injections of saline or cocaine. […] To understand the impact of TNFα on synaptic function in the NAc, AMPA/NMDA ratios were measured at glutamatergic synapses on MSNs in the NAc core. Alteration in NAc core AMPA receptors are involved in the expression of behavioral sensitization to psychostimulants (Kalives, 2009).
Mice (8-10 weeks) were perfused and their brains submerged overnight in 4% PFA, cryoprotected with 30% sucrose, and cut in 30 μm thick coronal slices using a cryostat. The sections were incubated for 4 hours with blocking solution (2% normal goat serum, 3% BSA, 0.2% Triton X-100 in PBS) before incubation overnight at 4 C with primary antibodies in blocking solution (rabbit anti-Iba1 antibody [019-19741, Wako; 1:800; RRID: AB_2566825], chicken anti-GFAP antibody [AB5541, Millipore; 1:500; RRID: AB_177521], rabbit anti-NeuN [ab104225, Abcam, 1:400; RRID: AB_10711153], and rabbit anti-TNFα antibody [ab6671, Abcam, 1:100; RRID: AB_305641] or mouse anti-TNFα antibody [ab1793, Abcam, 1:100; RRID: AB_302615]). Sections were washed (2×15 min with PBST [0.05% Tween20] and 1×15 min with PBS at RT) and incubated for 2 hrs at room temperature in secondary antibodies (anti-rabbit, anti-chicken, or anti-mouse IgG-conjugated Alexa Fluorochrome [Invitrogen; 1:400]). Sections were washed and briefly (<30 seconds) incubated with Hoechst 33342 [H1399, Molecular Probes; 1:10,000] in PBS. The stained sections were imaged using an Olympus FluoView FV1000 confocal microscope with Fluoview imaging software (FV10-ASW). Images of the ventral striatum (nucleus accumbens core and shell) were acquired with a 40× or 60× objective and stacks of 25-30 optical sections (1 μm per section) of depth were Z-projected into a single window and analysed using ImageJ software (NIH).
The number of Iba1+ microglia were manually counted from 212×212 μm (60× objectives) or 317×317 μm (40× objectives) images. TNFα intensity was measured using the mean grey value of the entire image while Iba1 intensity measurements were obtained using a thresholded area to highlight only the microglia. Cell body area (μm^2) was measured based on Iba1 staining and using the freehand selection tool. Additional analysis of microglia morphology in saline and cocaine treated mice was done using IMARIS software (Bitplane). […] The following parameters were analyzed for 40 microglia per group: total process length (sum of length of all processes), total process volume, process diameter and number of branch points and terminals. […]
After 40 cycles, the Ct values were determined.

[2] = tested on: primary rat microglia cultures; assay: TNFα mRNA in primary rat microglia cultures; format: cell-based; conditions: agonist 1 μm, 3 h
Experimental: For tissue, total RNA from the ventral striatum was extracted and isolated by RNAqueous-4PCR total RNA isolation kit (Ambion, AM1914), according to manufacturer's instructions. For microglia and astrocyte cultures, total RNA was isolated by RNeasy kit (Qiagen, 74136). For all sample types, 0.5 μg of total RNA was used for cDNA synthesis with Quantitect Reverse Transcription Kit (Qiagen, 205313), and quantitative RT-PCR was performed with Fast SYBR-Green Master Mix (Applied Biosystems) detected by StepOne Plus RealTime PCR system (Applied Biosystems). The sequences of qPCR primers used for mRNA quantification in this study were obtained from Integrated DNA Technologies, and are as follows: mouse TNFα forward, […] (SEQ ID NO: 1) [200 nM]; mouse TNFα reverse, […] (SEQ ID NO: 2) [200 nM]; mouse GAPDH forward, […] (SEQ ID NO: 3) [300 nM]; mouse GAPDH reverse, […] (SEQ ID NO: 4) [300 nM]; rat TNFα forward, […] (SEQ ID NO: 1) [600 nM]; rat TNFα reverse, […] (SEQ ID NO: 5) [600 nM]; rat cyclophilin forward, […] (SEQ ID NO: 6) [500 nM]; rat cyclophilin reverse, […] (SEQ ID NO: 7) [500 nM]. After 40 cycles, the Ct values were determined. To normalize the samples, ΔCt between TNFα and GADPH or cyclophilin Ct values was calculated. The x-fold difference in expression between the different treatments was then determined by subtraction of the ΔCt values and termed ΔΔCt. Finally, the total change was calculated as 2-ΔΔct and the relative amount compared with control samples was deducted.
Mixed microglia-astrocyte primary cultures were prepared from the striatum of postnatal rats (day 0), essentially as described (Beattie et al., 2002). Briefly, tissue was dissociated by […], and cells were seeded in glia media (MEM containing 5% FBS, 1.5% high sucrose MEM and 0.1% glutamax) on culture flasks (Corning) coated with poly-D lysine (Sigma) and placed in a humidified incubator at 37 C with 5% CO2. Neurons were removed by mechanical disruption and the medium was changed at day 1, and every 5-7 days after. […]

D1-MSNs in the NAc core [3] = assay: AMPA/NMDA ratio, acute NAc slices treated ex-vivo with TNFα, D1-MSNs; format: cell-based, mouse; conditions: for mean AMPA/NMDA ratio, D1 MSNs: NAc core
Experimental: (§2) It has been previously shown that TNFα drives internalization of AMPARs on MSNs in the dorsal striatum (Lewitus et al., 2014). As repeated cocaine administration primarily affects direct-pathway MSNs, specific subpopulations of MSNs in the NAc core were tested for their response to TNFα. Acute NAc slices were incubated with TNFα (10 ng/ml or 100 ng/ml) and whole-cell recording were made for Drd1a-td Tomato (D1) positive and negative (D2) MSNs. […] A low dose of TNFα (10 ng/ml) had no significant effect on either cell type.
as §1
. After a 1 h recovery period, slices were placed in a submersion-type recording chamber and perfused (1.5-2 ml/min) at 30° C. with a bicarbonate-buffered artificial CSF saturated with 95% O2/5% CO2 and containing (in mM): 119 NaCl, 2.5 KCl, 1 NaH2PO4, 1.3 MgCl2, 2.5 CaCl2, 26.2 NaHCO3, 11 glucose, and 0.05 picrotoxin. Whole-cell voltage-clamp recordings from medium spiny neurons in the nucleus accumbens core were obtained under visual control using infrared-differential interference contrast microscopy. Whole-cell electrodes (2-4 MΩ) were filled with internal solution containing the following (in mM): 120 CsMeSO3, 15 CsCl, 8 NaCl, 0.2 EGTA, 10 HEPES, 2 Mg-ATP, 0.3 Na-GTP, 10 tetraethylammonium, and 5 QX-314 [5-N-(2,6-dimethylphenylcarbamoylmethyl)triethylammonium bromide] (308-310 mOsm). pH was adjusted to 7.3 with CsOH. Cells with series resistance above 25 MΩ or a 20% change over time were excluded. Synaptic currents were evoked using stainless-steel bipolar stimulating electrodes placed 100-150 μm rostral to the recorded neurons. […]

D2-MSNs in the NAc core = assay: AMPA/NMDA ratio, acute NAc slices treated ex-vivo with TNFα, D2-MSNs; format: cell-based, mouse; conditions: for mean AMPA/NMDA ratio, D2 MSNs: NAc core
Experimental: as §2, §1
. […] Synaptic currents were evoked using stainless-steel bipolar stimulating electrodes placed 100-150 μm rostral to the recorded neurons. […]

## OC1(c2ccc(Cl)cc2)CCN(Cc2c[nH]c3ccccc23)CC1 [L741,626]
D1-MSNs in the NAc core [1]
  AMPA/NMDA ratio on D1-MSNs vs cocaine alone: increase
TNFα
  TNFα mRNA in ventral striatum tissue: significantly decreases

## Oc1cc2c(cc1O)C(c1ccccc1)CNCC2 (centres unmarked) [SKF-38393]
[2]
  change in TNFα mRNA in primary rat microglia cultures: had no effect

## CCCN[C@H]1CCc2nc(N)sc2C1 [pramipexole, pramipexole dihydrochloride]
[2]
  change in TNFα mRNA in primary rat microglia cultures: did not affect

## Tumor necrosis factor alpha [TNFα]
D1-MSNs in the NAc core [3]; TNFα−/− mice treated 24 hours prior with cocaine, 10 ng/ml TNFα ex-vivo
  mean AMPA/NMDA ratio, D1-MSNs: 3.08±0.42
D1-MSNs in the NAc core [3]; slices treated with 10 ng/ml TNFα (printed D1(10 ug TNF))
  mean AMPA/NMDA ratio, D1 MSNs: 3.1±0.52
D1-MSNs in the NAc core [3]; slices treated with 100 ng/ml TNFα (printed D1(100 ug TNF))
  mean AMPA/NMDA ratio, D1 MSNs: 2.42±0.23
D1-MSNs in the NAc core [3]; wildtype mice after 5 daily cocaine injections, 100 ng/ml TNFα ex-vivo
  mean AMPA/NMDA ratio, D1-MSNs: 4.06±0.46
D2-MSNs in the NAc core; TNFα-KO mice, cocaine 24 hours prior, 10 ng/ml TNFα ex-vivo
  effect on AMPA/NMDA ratios in D2-MSNs: had no effect
D2-MSNs in the NAc core; slices treated with 10 ng/ml TNFα (printed D2(10 ug TNF))
  mean AMPA/NMDA ratio, D2 MSNs: 2.78±0.34
D2-MSNs in the NAc core; slices treated with 100 ng/ml TNFα (printed D2(100 ug TNF))
  mean AMPA/NMDA ratio, D2 MSNs: 2.02±0.18
